Reference: patent US7842678B2, “Compositions comprising oligosaccharides” (priority 2003, dated 2010)

Key:
[1] = test system: VTEC NCTC 12900 adhesion to HT29 cells; experiment: Adhesion assay of VTEC to HT29 cells, cultures subcultured on three successive days (Example 2); type: cell-based, E. coli; details: for Inhibition of adhesion of VTEC to HT29 cells (FIG. 2): VTEC subcultured on three successive days; for Inhibition of adhesion of VTEC to HT29 cells (FIG. 1): 2.5 mg ml, plate counting, relative to oligosaccharide-free control
Experimental: VTEC NCTC 12900 was inoculated from frozen stocks into Dulbecco's modified eagle medium (DMEM) with added non-essential amino acids (1% v/v) and foetal bovine serum (5% v/v). The culture was incubated anaerobically at 37° C. for 18 h. A 20 μl aliquot was transferred into 2 ml of fresh DMEM, and incubated under the same conditions for 24 h. This was repeated twice more, so that the organism was subcultured on three successive days. An adhesion assay was then carried out as described previously, using 2.5 mg ml methyl-α-D-mannopyrannoside and D-mannose, and the adhered bacteria were enumerated by using plate counting.
Alpha 1,2 mannobiose and alpha 1,6 mannobiose were assayed for anti-adhesive activity using the method described hereinabove, with the modification that the VTEC cultures were subcultured on three successive days as described above.
Further oligosaccharides (pectic oligosaccharides, isomalto-oligosaccharides, GOS, partially hydrolyzed guar gum, xylo oligosaccharides and lactulose) have been tested for anti-adhesive activity against E. coli, both VTEC and EPEC pathovars. Methods were as described previously but with three subcultures included in the culture preparation stage, as described above. Compounds tested included GOS and pectic oligosaccharides that had been further purified by ultrafiltration to remove nitrates.

[2] = test system: EPEC adhesion to HT29 cells; experiment: Adhesion assay of EPEC to HT29 cell monolayers (Example 1); type: cell-based, E. coli; details: oligosaccharide concentration 0.25%; initial inoculum 7.0 log cfu ml^−1; buffer only 5.3; 2 h at 37° C.
Experimental: (§1) HT29 cells were grown to 95-100% confluence in 12-well tissue culture plates. Bacterial cultures were grown in tissue culture medium, anaerobically at 37° C. These incubation conditions promoted expression of adhesions by the bacteria. The bacteria (in buffer, with or without the test oligosaccharide) were added to the cell monolayers and incubated for 2 h at 37° C. aerobically under 5% CO2. After incubation, the cell layers were washed three times in buffer and the adherent bacteria quantified. Assays were performed in triplicate
(§2) The tested oligosaccharides were methyl-α-mannopyrannoside and CGMP.
(§3) After the adhesion and washing stages, the cells were suspended and vigorously mixed to break up clumps. The resulting suspension was then plated onto non-selective agar media appropriate for the test organism.
(§4) The Initial inoculum was 7.3 log cfu ml^−1 (VTEC) and 7.0 log cfu ml^−1 (EPEC).

[3] = test system: VTEC adhesion to HT29 cells; experiment: Adhesion assay of VTEC to HT29 cell monolayers (Example 1); type: cell-based, E. coli
Experimental: as §1, §2, §3, §4

[4] = test system: E. coli EPEC (O119:H4) adhesion to HT29 cells; experiment: Adhesion assay of carbohydrates against E. coli EPEC on HT29 monolayers (Example 3); type: cell-based; details: carbohydrate solution 5 mg/ml in PBS mixed 1:1 with bacterial suspension; 2 hours at 37° C. aerobically; relative to carbohydrate-free control
Experimental: The saccharides were tested against one strain of E. coli VTEC (0157:1H7 strain NCTC 12900) and one strain of E. coli EPEC (O119:H4).
E. coli broth cultures for adhesion assays were grown in DMEM supplemented with 5% v/v FBS and 1% non-essential amino acid solution (SDMEM). For each strain, a broth was inoculated from a slope culture and incubated anaerobically at 37° C. for 18-24 h. The overnight culture was then inoculated (1% v/v) into fresh SDMEM and incubated for a further 18-24 h under the same conditions. This was repeated once more. On the day of the assay, a 10% v/v inoculum was placed into pre-warmed SDMEM and incubated for 4 h anaerobically at 37° C.
A culture of the test strain was prepared as described above, then diluted 1:500 in PBS. The viable count of the diluted suspension was determined by spread plating onto PCA, with decimal dilutions carried out in MRD as necessary. The carbohydrates to be tested were dissolved in PBS (5 mg/ml) and sterilised by passing through a 0.2 μm syringe filter. […] A 1 ml aliquot of PBS was then pipetted into each well, and pipette mixed until the monolayer was completely dislodged and clumps broken up (as determined visually). […]
Data processing: Viable counts were calculated for all wells and the inoculum, and expressed as colony forming units per ml (cfu/ml). For each test, the mean and standard error of the triplicate wells were calculated. […]

Row | Molecule | Inhibition of adhesion of VTEC to HT29 cells (FIG. 2) [1] | Inhibition of adhesion of VTEC to HT29 cells (FIG. 1) [1] | other results
1 | OC[C@H]1O[C@H](O[C@@H]2C(O)O[C@H](CO)[C@@H](O)[C@@H]2O)[C@@H](O)[C@@H](O)[C@@H]1O (stereo partly drawn) [Alpha 1,2 mannobiose] | Inhibition of adhesion was detected | – | –
2 | O=C[C@@H](O)[C@@H](O)[C@H](O)[C@H](O)CO [D-mannose] | – | good inhibition of adhesion | –
3 | OC[C@H]1O[C@H](OC[C@H]2O[C@H](O)[C@@H](O)[C@@H](O)[C@@H]2O)[C@@H](O)[C@@H](O)[C@@H]1O [alpha 1,6 mannobiose] | Inhibition of adhesion was detected | – | –
4 | CO[C@H]1O[C@H](CO)[C@@H](O)[C@H](O)[C@@H]1O [methyl-α-mannopyranoside, Methyl-α-D-mannopyranoside] | Inhibition of adhesion | good inhibition of adhesion | Viable count of adhered EPEC [2]: 5.1 log cfu ml^−1; Reduction in adhesion (in words) ([3]; oligosaccharide 0.25%, pathovar not given): reduction in adhesion; Viable count of adhered VTEC ([3]; oligosaccharide concentration 0.25%, initial inoculum 7.3 log cfu ml^−1, buffer only 6.3, 2 h at 37° C.): 4.8 log cfu ml^−1
5 | β-1,3-glucan [curdlan] | – | – | Anti-adhesive activity against enteropathogenic E. coli EPEC (FIG. 5) [4]: positive
